# Assay results reported in patent US20220220128A1, “HETEROCYCLIC COMPOUNDS AS KINASE INHIBITORS, COMPOSITIONS COMPRISING THE HETEROCYCLIC COMPOUND, AND METHODS OF USE THEREOF” (JS Innopharm (Shanghai) Ltd, priority 2019, published 2022).
# Legend:
# human RET kinase = molecular target: T1, human RET kinase (Homo sapiens, UniProt P07949); assay: RET Kinase Assay (LanthaScreen TR-FRET enzymatic assay); assay type: biochemical; details: 7 nM RET, 23 μM ATP
# T1 construct: purchased Carna 08-159
# In short: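 TR-FRET enzymatic read-out using 23 μM ATP, 3 μM FAM-P2 substrate and 7 nM human RET, after 15-min compound pretreatment at room temperature and a 1 h reaction at 28° C in HEPES pH 7.5 buffer. Percent of DMSO control fitted to nonlinear sigmoid curves for IC50.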
# BAF3-KIF5B-RET cells = molecular target: T2, BAF3-KIF5B-RET cells (Homo sapiens, UniProt P07949); assay: BAF3-KIF5B-RET Cell proliferation assay (CellTiter-Glo, 72 hours); assay type: cell-based; details: growth inhibition, read-out: BA/F3-KIF5B-RET Cellular activity
# T2 construct: fused on or other part: P33176 (Kinesin-1 heavy chain)
# T2 sequence (P07949 whole entry, change not shown, the tested form may be a part): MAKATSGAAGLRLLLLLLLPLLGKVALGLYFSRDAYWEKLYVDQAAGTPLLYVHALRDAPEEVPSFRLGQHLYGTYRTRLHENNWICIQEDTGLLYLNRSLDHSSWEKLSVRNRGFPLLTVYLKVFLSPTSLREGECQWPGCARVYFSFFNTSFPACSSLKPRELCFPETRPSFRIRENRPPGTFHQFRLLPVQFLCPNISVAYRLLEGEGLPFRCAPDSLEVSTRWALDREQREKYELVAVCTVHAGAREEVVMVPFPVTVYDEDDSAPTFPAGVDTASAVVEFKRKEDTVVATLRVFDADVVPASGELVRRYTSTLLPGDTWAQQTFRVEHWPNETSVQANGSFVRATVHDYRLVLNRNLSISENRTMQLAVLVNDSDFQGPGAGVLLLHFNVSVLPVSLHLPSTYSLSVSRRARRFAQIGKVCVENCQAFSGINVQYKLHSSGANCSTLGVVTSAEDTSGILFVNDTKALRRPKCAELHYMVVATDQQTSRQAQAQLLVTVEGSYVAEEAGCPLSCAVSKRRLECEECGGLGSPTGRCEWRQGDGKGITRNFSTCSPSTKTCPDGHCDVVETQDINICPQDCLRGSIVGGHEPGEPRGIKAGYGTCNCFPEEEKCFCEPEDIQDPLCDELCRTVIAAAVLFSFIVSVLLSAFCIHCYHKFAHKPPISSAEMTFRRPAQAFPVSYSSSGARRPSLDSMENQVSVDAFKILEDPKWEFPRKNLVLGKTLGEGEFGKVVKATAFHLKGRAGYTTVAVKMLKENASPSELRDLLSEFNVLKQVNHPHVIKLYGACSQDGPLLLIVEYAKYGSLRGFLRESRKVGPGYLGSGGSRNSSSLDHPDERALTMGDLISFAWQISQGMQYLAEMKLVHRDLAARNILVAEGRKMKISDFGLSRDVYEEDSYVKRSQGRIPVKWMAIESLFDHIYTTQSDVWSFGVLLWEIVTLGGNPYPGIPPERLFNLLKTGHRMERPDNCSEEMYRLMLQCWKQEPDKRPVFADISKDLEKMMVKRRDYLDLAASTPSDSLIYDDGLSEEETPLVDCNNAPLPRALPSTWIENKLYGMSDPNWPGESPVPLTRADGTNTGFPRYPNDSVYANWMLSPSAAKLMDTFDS
# In short: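 Cells seeded at 2,000/well in RPMI-1640 with 10% FBS and left 24 h at 37 °C, then exposed 72 h to nine compound levels (final 1 μM down to 0.00015 μM, 0.1% DMSO). CellTiter-Glo luminescence gave viability versus DMSO wells, from which IC50 was fitted.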
# TT cells = assay: TT Cell Proliferation Assay (WST-8, 8 days); assay type: cell-based; details: Homo sapiens, TT, 192 h, growth inhibition in TT cells, read-out: TT Cellular Activity
# In short: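 IC50 was derived from absorbance at 450 nm after 5 h with WST-8, following 8 days' incubation at 37 °C. Final compound levels spanned 0.0005–5 μM in 0.5% DMSO. TT cells were seeded at 6,000 per well in 10% FBS RPMI-1640 and left to attach for 24 h beforehand.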
# human KDR kinase = molecular target: T3, human KDR kinase (Homo sapiens, UniProt P35968); assay: KDR Kinase Assay (LanthaScreen TR-FRET enzymatic assay); assay type: biochemical; details: 1.2 nM KDR, 92 μM ATP
# T3 construct: purchased Carna 08-191
# T3 sequence (P35968 20-1356): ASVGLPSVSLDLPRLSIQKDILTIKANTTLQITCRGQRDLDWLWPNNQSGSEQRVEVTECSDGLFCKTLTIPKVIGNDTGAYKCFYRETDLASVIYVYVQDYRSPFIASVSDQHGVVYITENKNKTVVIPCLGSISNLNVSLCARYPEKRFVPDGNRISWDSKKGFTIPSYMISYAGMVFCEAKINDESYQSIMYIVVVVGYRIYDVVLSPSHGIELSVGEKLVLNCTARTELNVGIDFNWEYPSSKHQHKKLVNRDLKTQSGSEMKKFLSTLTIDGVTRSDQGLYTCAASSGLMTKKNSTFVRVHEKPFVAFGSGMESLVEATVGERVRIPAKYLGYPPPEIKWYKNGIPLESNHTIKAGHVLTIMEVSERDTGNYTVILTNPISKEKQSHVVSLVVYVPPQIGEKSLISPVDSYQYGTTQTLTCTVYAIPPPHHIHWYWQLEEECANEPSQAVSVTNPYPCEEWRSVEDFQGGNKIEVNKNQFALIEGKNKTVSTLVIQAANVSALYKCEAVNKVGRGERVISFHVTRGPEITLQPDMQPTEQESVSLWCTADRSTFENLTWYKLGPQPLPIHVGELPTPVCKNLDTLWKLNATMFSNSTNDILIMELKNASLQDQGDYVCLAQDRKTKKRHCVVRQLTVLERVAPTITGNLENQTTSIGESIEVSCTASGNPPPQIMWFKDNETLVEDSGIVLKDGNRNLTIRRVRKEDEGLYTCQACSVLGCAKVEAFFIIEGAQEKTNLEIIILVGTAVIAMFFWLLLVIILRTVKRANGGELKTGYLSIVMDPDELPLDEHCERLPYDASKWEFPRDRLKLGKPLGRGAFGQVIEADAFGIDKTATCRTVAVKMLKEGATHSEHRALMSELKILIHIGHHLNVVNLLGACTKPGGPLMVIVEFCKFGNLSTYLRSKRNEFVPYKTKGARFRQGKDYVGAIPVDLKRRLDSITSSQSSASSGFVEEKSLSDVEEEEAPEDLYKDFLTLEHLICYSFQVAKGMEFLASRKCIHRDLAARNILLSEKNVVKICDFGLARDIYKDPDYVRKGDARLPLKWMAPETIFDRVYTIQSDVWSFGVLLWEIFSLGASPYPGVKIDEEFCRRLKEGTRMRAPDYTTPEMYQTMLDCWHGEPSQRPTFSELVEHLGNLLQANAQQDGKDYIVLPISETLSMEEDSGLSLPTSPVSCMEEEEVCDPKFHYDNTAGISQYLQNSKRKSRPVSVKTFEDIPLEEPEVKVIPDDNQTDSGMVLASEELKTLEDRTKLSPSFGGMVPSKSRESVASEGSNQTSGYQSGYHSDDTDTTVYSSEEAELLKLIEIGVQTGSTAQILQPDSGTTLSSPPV
# In short: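 TR-FRET enzymatic format: after 15-min room-temperature compound pretreatment, 1.2 nM human KDR phosphorylated 3 μM FAM-P22 with 92 μM ATP (HEPES pH 7.5, 28° C., one hour). Reactions were quenched with EDTA buffer. IC50 came from nonlinear sigmoid fits of percent-of-vehicle signal ratios.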
# T1 sequence (P07949 29-1114): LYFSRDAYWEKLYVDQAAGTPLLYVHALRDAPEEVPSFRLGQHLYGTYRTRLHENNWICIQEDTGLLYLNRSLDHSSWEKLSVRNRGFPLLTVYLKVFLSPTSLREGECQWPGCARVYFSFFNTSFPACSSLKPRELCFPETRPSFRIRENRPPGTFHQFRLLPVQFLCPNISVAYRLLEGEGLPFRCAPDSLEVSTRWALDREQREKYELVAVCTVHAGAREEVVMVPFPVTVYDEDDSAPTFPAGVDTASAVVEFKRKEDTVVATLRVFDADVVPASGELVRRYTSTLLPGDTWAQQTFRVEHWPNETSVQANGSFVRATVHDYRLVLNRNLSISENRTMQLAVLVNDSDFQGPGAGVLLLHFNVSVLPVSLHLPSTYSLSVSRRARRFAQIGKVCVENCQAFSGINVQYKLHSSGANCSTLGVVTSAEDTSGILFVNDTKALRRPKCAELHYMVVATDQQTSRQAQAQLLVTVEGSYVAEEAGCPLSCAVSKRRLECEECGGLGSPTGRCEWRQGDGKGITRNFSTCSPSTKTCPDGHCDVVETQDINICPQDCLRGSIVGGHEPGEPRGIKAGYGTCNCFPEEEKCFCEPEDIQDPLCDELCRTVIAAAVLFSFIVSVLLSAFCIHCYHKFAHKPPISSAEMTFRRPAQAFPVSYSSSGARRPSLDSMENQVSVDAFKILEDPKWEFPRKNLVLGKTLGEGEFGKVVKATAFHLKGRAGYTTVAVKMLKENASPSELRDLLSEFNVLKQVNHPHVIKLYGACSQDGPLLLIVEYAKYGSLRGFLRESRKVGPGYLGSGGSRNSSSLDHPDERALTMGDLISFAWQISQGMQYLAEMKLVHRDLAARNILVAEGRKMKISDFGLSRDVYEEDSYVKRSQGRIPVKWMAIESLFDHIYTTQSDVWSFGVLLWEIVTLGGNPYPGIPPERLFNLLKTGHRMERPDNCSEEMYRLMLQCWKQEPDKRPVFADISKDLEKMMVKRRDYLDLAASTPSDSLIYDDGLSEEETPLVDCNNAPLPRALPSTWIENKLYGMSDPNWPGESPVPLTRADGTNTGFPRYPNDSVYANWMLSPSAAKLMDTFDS
SMILES,IC50 (human RET kinase) [nM],GI50 (BAF3-KIF5B-RET cells) [nM],IC50 (human KDR kinase) [nM],IC50 (TT cells) [nM]
"Cn1cc(-c2cc(-c3ccc(N4C[C@@H]5C[C@@](C)(NC(=O)c6ncccc6C#N)C[C@@H]5C4)nc3)c3c(C#N)cnn3c2)cn1 [Example 121, 3-cyano-N-((3aR,5s,6aS)-2-(5-(3-cyano-6-(1-methyl-1H-pyrazol-4-yl)pyrazolo[1,5-a]pyridin-4-yl)pyridin-2-yl)-5-methyloctahydrocyclopenta[c]pyrrol-5-yl)picolinamide]",≤ 10,≤ 10,≤ 10,≤ 10
"Cn1cc(-c2cc(-c3ccc(N4C[C@@H]5[C@H](C4)[C@H]5NC(=O)c4ncccc4Cl)nc3)c3c(C#N)cnn3c2)cn1 [Example 20, 3-chloro-N-((1R,5S,6s)-3-(5-(3-cyano-6-(1-methyl-1H-pyrazol-4-yl)pyrazolo[1,5-a]pyridin-4-yl)pyridin-2-yl)-3-azabicyclo[3.1.0]hexan-6-yl)picolinamide]",≤ 10,10 to 50,10 to 50,10 to 50
"CC(C)(O)COc1cc(-c2ccc(N3C[C@H]4CN(C(=O)c5ncccc5Cl)C[C@H]4C3)nc2)c2c(C#N)cnn2c1 [Example 7, 4-(6-((3aR,6aS)-5-(3-chloropicolinoyl)hexahydropyrrolo[3,4-c]pyrrol-2(1H)-yl)pyridin-3-yl)-6-(2-hydroxy-2-methylpropoxy)pyrazolo[1,5-a]pyridine-3-carbonitrile]",≤ 10,50 to 100,> 100,≤ 10
"COc1ccc(C(=O)NC23CC4CC(C2)N(c2ccc(-c5cc(OCC(C)(C)O)cn6ncc(C#N)c56)cn2)C(C4)C3)cn1 [Example 138, N-((1R,3S,5s,7s)-2-(5-(3-cyano-6-(2-hydroxy-2-methylpropoxy)pyrazolo[1,5-a]pyridin-4-yl)pyridin-2-yl)-2-azaadamantan-5-yl)-6-methoxynicotinamide]",≤ 10,10 to 50,≤ 10,–
"Cn1cc(-c2cc(-c3ccc(N4C[C@@H]5[C@H](C4)[C@H]5NS(=O)(=O)c4c(F)cccc4Cl)nc3)c3c(C#N)cnn3c2)cn1 [Example 46, 2-chloro-N-((1R,5S,6s)-3-(5-(3-cyano-6-(1-methyl-1H-pyrazol-4-yl)pyrazolo[1,5-a]pyridin-4-yl)pyridin-2-yl)-3-azabicyclo[3.1.0]hexan-6-yl)-6-fluorobenzene-sulfonamide]",≤ 10,≤ 10,≤ 10,≤ 10
"Cn1cc(-c2cc(-c3ccc(N4C[C@@H]5[C@@H](CNC(=O)c6ncccc6Cl)[C@@H]5C4)nc3)c3c(C#N)cnn3c2)cn1 [Example 73, 3-chloro-N-(((1R,5S,6s)-3-(5-(3-cyano-6-(1-methyl-1H-pyrazol-4-yl)pyrazolo[1,5-a]pyridin-4-yl)pyridin-2-yl)-3-azabicyclo[3.1.0]hexan-6-yl)methyl)picolinamide]",≤ 10,≤ 10,≤ 10,≤ 10
"CC(C)(O)COc1cc(-c2cnc(N3C[C@@H]4C[C@@](C)(NC(=O)c5ncccc5Cl)C[C@@H]4C3)cn2)c2c(C#N)cnn2c1 [Example 143, 3-chloro-N-((3aR,5s,6aS)-2-(5-(3-cyano-6-(2-hydroxy-2-methylpropoxy)pyrazolo[1,5-a]pyridin-4-yl)pyrazin-2-yl)-5-methyloctahydrocyclopenta[c]pyrrol-5-yl)picolinamide]",≤ 10,10 to 50,> 100,–
"CC(C)(O)COc1cc(-c2cnc(N3C[C@@H]4[C@@H](CNC(=O)c5ncccc5Cl)[C@@H]4C3)cn2)c2c(C#N)cnn2c1 [Example 103, 3-chloro-N-(((1R,5S,6s)-3-(5-(3-cyano-6-(2-hydroxy-2-methylpropoxy)pyrazolo[1,5-a]pyridin-4-yl)pyrazin-2-yl)-3-azabicyclo[3.1.0]hexan-6-yl)methyl)picolinamide]",≤ 10,10 to 50,> 100,–

# Further lines, with some results ahead:
IC50 (human RET kinase) [nM],GI50 (BAF3-KIF5B-RET cells) [nM],IC50 (human KDR kinase) [nM],SMILES,IC50 (TT cells) [nM]
≤ 10,≤ 10,10 to 50,"Cn1ccc(-c2cc(-c3ccc(N4C[C@@H]5C[C@@](C)(NC(=O)c6ncccc6Cl)C[C@@H]5C4)nc3)c3c(C#N)cnn3c2)n1 [Example 56, 3-chloro-N-((3aR,5s,6aS)-2-(5-(3-cyano-6-(1-methyl-1H-pyrazol-3-yl)pyrazolo[1,5-a]pyridin-4-yl)pyridin-2-yl)-5-methyloctahydro-cyclopenta[c]pyrrol-5-yl)picolinamide]",≤ 10
≤ 10,≤ 10,≤ 10,Cn1cc(-c2cc(-c3ccc(N4C5CC6CC4CC(NC(=O)OC(C)(C)C)(C6)C5)nc3)c3c(C#N)cnn3c2)cn1 [Example 180],≤ 10
≤ 10,10 to 50,50 to 100,"Cn1cc(-c2cc(-c3cnc(N4C[C@@H]5[C@H](C4)[C@H]5NC(=O)c4ncccc4Cl)cn3)c3c(C#N)cnn3c2)cn1 [Example 102, 3-chloro-N-((1R,5S,6s)-3-(5-(3-cyano-6-(1-methyl-1H-pyrazol-4-yl)pyrazolo[1,5-a]pyridin-4-yl)pyrazin-2-yl)-3-azabicyclo[3.1.0]hexan-6-yl)picolinamide]",–
≤ 10,≤ 10,10 to 50,"CC(C)(O)COc1cc(-c2ccc(N3C[C@@H]4C[C@@](C)(NC(=O)c5c(F)cccc5Cl)C[C@@H]4C3)nc2)c2c(C#N)cnn2c1 [Example 96, 2-chloro-N-((3aR,5s,6aS)-2-(5-(3-cyano-6-(2-hydroxy-2-methylpropoxy)pyrazolo[1,5-a]pyridin-4-yl)pyridin-2-yl)-5-methyloctahydrocyclopenta[c]pyrrol-5-yl)-6-fluorobenzamide]",≤ 10
≤ 10,50 to 100,10 to 50,"COc1ccc(CN[C@]2(C)C[C@H]3CN(c4ccc(-c5cc(-c6cnn(C)c6)cn6ncc(C#N)c56)cn4)C[C@H]3C2)cn1 [Example 152, 4-(6-((3aR,5s,6aS)-5-(((6-methoxypyridin-3-yl)methyl)amino)-5-methylhexahydrocyclopenta[c]pyrrol-2(1H)-yl)pyridin-3-yl)-6-(1-methyl-1H-pyrazol-4-yl)pyrazolo[1,5-a]pyridine-3-carbonitrile]",–
≤ 10,≤ 10,≤ 10,"Cn1cc(-c2cc(-c3ccc(N4C[C@H]5CN(C(=O)c6c(F)cccc6Cl)C[C@H]5C4)nc3)c3c(C#N)cnn3c2)cn1 [Example 5, 4-(6-((3aR,6aS)-5-(2-chloro-6-fluorobenzoyl)hexahydropyrrolo[3,4-c]pyrrol-2(1H)-yl)pyridin-3-yl)-6-(1-methyl-1H-pyrazol-4-yl)pyrazolo[1,5-a]pyridine-3-carbonitrile]",≤ 10
≤ 10,≤ 10,10 to 50,"Cn1ccc(-c2cc(-c3cnc(N4C[C@@H]5C[C@@](C)(NC(=O)c6ncccc6Cl)C[C@@H]5C4)cn3)c3c(C#N)cnn3c2)n1 [Example 70, 3-chloro-N-((3aR,5s,6aS)-2-(5-(3-cyano-6-(1-methyl-1H-pyrazol-3-yl)pyrazolo[1,5-a]pyridin-4-yl)pyrazin-2-yl)-5-methyloctahydrocyclopenta[c]pyrrol-5-yl)picolinamide]",10 to 50
≤ 10,≤ 10,50 to 100,"CC(C)(O)COc1cc(-c2ccc(N3C4CC5CC3CC(NC(=O)c3ncccc3F)(C5)C4)nc2)c2c(C#N)cnn2c1 [Example 137, N-((1R,3S,5s,7s)-2-(5-(3-cyano-6-(2-hydroxy-2-methylpropoxy)pyrazolo[1,5-a]pyridin-4-yl)pyridin-2-yl)-2-azaadamantan-5-yl)-3-fluoropicolinamide]",≤ 10
≤ 10,> 100,> 100,"CC(C)(O)COc1cc(-c2ccc(N3C[C@@H]4[C@H](C3)[C@H]4NC(=O)c3ncccc3Cl)nc2)c2c(C#N)cnn2c1 [Example 37, 3-chloro-N-((1R,5S,6s)-3-(5-(3-cyano-6-(2-hydroxy-2-methylpropoxy)pyrazolo[1,5-a]pyridin-4-yl)pyridin-2-yl)-3-azabicyclo[3.1.0]hexan-6-yl)picolinamide]",50 to 100
≤ 10,≤ 10,10 to 50,"Cn1cc(-c2cc(-c3cnc(N4C[C@@H]5[C@@H](CNC(=O)c6ncccc6Cl)[C@@H]5C4)cn3)c3c(C#N)cnn3c2)cn1 [Example 153, 3-chloro-N-(((1R,5S,6s)-3-(5-(3-cyano-6-(1-methyl-1H-pyrazol-4-yl)pyrazolo[1,5-a]pyridin-4-yl)pyrazin-2-yl)-3-azabicyclo[3.1.0]hexan-6-yl)methyl)picolinamide]",–
≤ 10,10 to 50,> 100,"CC(C)C(=O)NC12CC3CC(C1)N(c1ccc(-c4cc(OCC(C)(C)O)cn5ncc(C#N)c45)cn1)C(C3)C2 [Example 132, N-((1R,3S,5s,7s)-2-(5-(3-cyano-6-(2-hydroxy-2-methylpropoxy)pyrazolo[1,5-a]pyridin-4-yl)pyridin-2-yl)-2-azaadamantan-5-yl)isobutyramide]",≤ 10
